Laboratory results: patent publication US9981044B2, “Activation of adaptive immune processes for the treatment of cancers and infectious diseases” (Susavion Biosciences, Inc., priority 2014, dated 2018)
Where a SMILES comes first, the peptide text is derived from it. Bridges are numbered along the chain shown (N, C = ends). Roman numbers before positions name the chains, in order.

Key:
[1] = system: ovarian cancer cell line ID8; assay: Survival of mice implanted with ID8 cells; assay type: in vivo, C57Bl/6 mice
Description: Tumors were allowed to progress for 45 days before the animal were injected with svD2 every other day.
Female C57Bl/6 mice were implanted with ID8 cells. After allowing the cell to develop into tumors for 45 days, the animals received injections of svD2 every other day at a dose of 1 nmol/g body weight or 0.1 nmol/g body weight. Accumulation of ascites was monitored by weight of the animals as the result of expansion of the peritoneal cavity. […] Table 3 summarizes the survival data including a treatment with paclitaxel, which is a standard-of-care chemotherapeutic drug. The animals were given paclitaxel at a dose of 18 mg/kg body weight on days 45, 47 and 49 of the experiment.

peritoneal cells = assay: Response of peritoneal cells in mice (flow cytometry); assay type: in vivo; settings: C57BL/6 mice
Description: The number of cells is indicated as a ratio of the total number of each cell type normalized to the number of cells in untreated control samples.
To examine whether svD2 effectively stimulates the immune system in vivo, the peptide was injected subcutaneously on alternate days into Th1-poised C57BL/6 strain mice at a dose of 1 μmole/kg.

[2] = Solubility of the polypeptide; assay type: physicochemical
Description: svD2 in lyophilized form is a white fluffy powder using trifluoroacetate (TFA) or acetate as a counterion. Net polypeptide content with and without the counter ion was approximately 88% and 73%, respectively. The remainder was likely water of hydration of the highly polar polypeptide. Solubility of the polypeptide in water is high. In the preparation of aqueous pharmaceutical compositions of the polypeptide with any of the pharmaceutically acceptable carriers described above, concentrations of the polypeptide in isotonic saline of 10 mM, and possibly somewhat higher, can be readily achieved. According to representative embodiments, therefore, the polypeptide is administered to a subject suffering from cancer in an aqueous pharmaceutical composition having a polypeptide concentration generally from about 0.1 mM to about 10 mM, typically from about 0.1 mM to about 5 mM, and a pharmaceutically acceptable carrier.

[3] = system: Human peripheral blood mononuclear cells; assay: Cytokine release by human PBMCs (cytokine antibody array); assay type: cell-based; settings: 4-hour treatment, svD2 100 nM
Description: The polypeptide svD2, synthesized in Example 1 above, was evaluated in terms of a number of biological activities thought to correlate with its effectiveness against cancer.

human PBMC cultures = assay: Phagocytosis of opsonized microspheres in human PBMC cultures; assay type: cell-based; settings: for Beads/cell (mean ± SD): treated 20 h (50 nM svD2 or 100 ng/mL IFNγ), challenged 1 h with microspheres opsonized with rabbit antiserum, 15 cells
Description: Whether the peptide svD2 stimulates phagocytosis was studied in the human PBMC cultures. The cells were treated 20 h with vehicle (phosphate-buffered saline, PBS), 50 nM svD2 or 100 ng/mL IFNγ, and then challenged 1 h with microspheres. Cells were fixed with 2% formalin and washed with PBS. Beads in each cell were counted on microscope images, with 15 cells analyzed for each treatment.

[4] = paclitaxel 18 mg/kg on days 45, 47 and 49
[5] = svD2 0.1 nmol/g every other day from day 45
[6] = svD2 1 nmol/g every other day from day 45

In the case of CC(=O)O[C@H]1C(=O)[C@@]2(C)[C@H]([C@H](OC(=O)c3ccccc3)[C@]3(O)C[C@H](OC(=O)[C@H](O)[C@@H](NC(=O)c4ccccc4)c4ccccc4)C(C)=C1C3(C)C)[C@]1(OC(C)=O)CO[C@@H]1C[C@@H]2O [Paclitaxel, paclitaxel, reference compound], the “Mean survival” value [1, 4] is reported as 81.5 days and the Number of deaths [1, 4] is reported as 10.

In the case of CC(C)[C@H](N)C(=O)N[C@@H](CO)C(=O)N[C@@H](CC(N)=O)C(=O)N[C@@H](CCC(N)=O)C(=O)N[C@@H](Cc1c[nH]cn1)C(=O)NCC(=O)NCC(=O)NCC(=O)N[C@@H](CO)C(=O)NCCCC[C@H](NC(=O)[C@H](CO)NC(=O)CNC(=O)CNC(=O)CNC(=O)[C@H](Cc1c[nH]cn1)NC(=O)[C@H](CCC(N)=O)NC(=O)[C@H](CC(N)=O)NC(=O)[C@H](CO)NC(=O)[C@@H](N)C(C)C)C(=O)NCCCC[C@H](NC(=O)[C@H](CCCCNC(=O)[C@H](CO)NC(=O)CNC(=O)CNC(=O)CNC(=O)[C@H](Cc1c[nH]cn1)NC(=O)[C@H](CCC(N)=O)NC(=O)[C@H](CC(N)=O)NC(=O)[C@H](CO)NC(=O)[C@@H](N)C(C)C)NC(=O)[C@H](CO)NC(=O)CNC(=O)CNC(=O)CNC(=O)[C@H](Cc1c[nH]cn1)NC(=O)[C@H](CCC(N)=O)NC(=O)[C@H](CC(N)=O)NC(=O)[C@H](CO)NC(=O)[C@@H](N)C(C)C)C(N)=O [svD2, [(VSNQHGGGS)2K]2K-NH2] (I: H-VSNQHGGGSKK-NH2 / II: H-VSNQHGGGSK / III: H-VSNQHGGGS / IV: H-VSNQHGGGS; amide I:10-IV:C, I:11-II:C, II:10-III:C; N-terminus assumed), the “Memory B cells in the peritoneal cavity” value (peritoneal cells; 1 nmole/g doses, flow cytometry 24 hours after each injection) is reported as “increase in memory B cells”, the “Mature immune cells in peritoneal cells” value (peritoneal cells; 1 μmole/kg subcutaneously on alternate days, 24 hours after the second injection) is reported as “several-fold increases” and the “Changes in mature cell populations (CD3, CD8, NK1.1, CD19, CD69)” value (peritoneal cells; 1 μmole/kg subcutaneously, 24 hours after the first injection) is reported as “small”. The solubility ([2]; isotonic saline, saline or isotonic, read-out: Achievable concentration in isotonic saline) was at least 10 mM, the Solubility in water ([2]; water) was “high” and the “Relative level of Eotaxin released” value [3] was 47. For the same molecule, the “Relative level of Eotaxin-2 released” value [3] was 470, the “Relative level of GM-CSF released” value [3] was 96 and the “Relative level of ICAM-1 released” value [3] was 70. For the same molecule, the “Relative level of IFNγ released” value [3] was 170, the “Relative level of IL-1a released” value [3] was 322 and the “Relative level of IL-12p70 released” value [3] was 117. The “Relative level of IL-15 released” value [3] was 137, the “Relative level of IL-17 released” value [3] was 21 and the “Relative level of IL-21 released” value [3] was 130. For the same molecule, the “Relative level of IP-10 released” value [3] was 377, the “Relative level of MCP-2 released” value [3] was 97 and the “Relative level of MIG released” value [3] was 94. For the same molecule, the “Relative level of PDGF-BB released” value [3] was 82, the “Relative level of TIMP-2 released” value [3] was 285 and the “Relative level of TNF-α released” value [3] was 138. For the same molecule, the “Relative level of TNF-β released” value [3] was 93, the “Stimulation of phagocytic cells” value (human PBMC cultures; human PBMC cultures, 50 nM svD2, 20 h) was “does not significantly stimulate phagocytic cells” and the “Beads/cell (mean ± SD)” value (human PBMC cultures) was 1.3 ± 1.8 Beads/cell. The “Toxicity in treated mice” value (Toxicity in vivo) was “No evidence of toxicity”, the “Survival rate of mice implanted with ID8 cells” value ([1]; both doses, 1 nmol/g and 0.1 nmol/g body weight) was “improved the survival rate” and the “Mean survival” value [1, 5] was 74.5 days. For the same molecule, the Number of deaths [1, 5] was 4, the “Mean survival” value [1, 6] was 74 days and the Number of deaths [1, 6] was 4.

B1: IFNγ: cytokine used as comparator treatment, 100 ng/mL in phagocytosis test (protein, UniProt P01579 24-161, looked up)
Interferon gamma: QDPYVKEAENLKKYFNAGHSDVADNGTLFLGILKNWKEESDRKIMQSQIVSFYFKLFKNFKDDQSIQKSVETIKEDMNVKFFNSNKKKRDDFEKLTNYSVTDLNVQRKAIHELIQVMAELSPAAKTGKRKRSQMLFRG
In the case of B1, the “Relative level of IL-21 released” value [3] is reported as “(IFNγ, 100)” and the “Beads/cell (mean ± SD)” value (human PBMC cultures) is reported as 35.8 ± 12.6 Beads/cell.
